Assay results taken from patent USRE47193E1, “Selectively substituted quinoline compounds” (EISAI R&D MANAGEMENT CO., LTD., priority 2013, dated 2019).

Experiments:
Human TLR7/8 = experiment: Human PBMC cell-based assay, TLR7/8 stimulus (RNA-Ig), cytokine ELISA; conditions: primary human PBMC assay, TLR7/8 potency; ligand not given; read-out: Human PBMCs IC50
In short: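 Healthy-donor human PBMC, 2×10^5 cells/well (1×10^5 in later assay), pre-treated 30 min with compound (0.1% DMSO). Stimulated 20 h at 37 °C with RNA-Ig: 26-mer U1 snRNA stem loop IV phosphorothioate RNA at 2.5 μM plus anti-ssDNA antibody (1:25 or 1 ug/ml). Supernatant cytokines by ELISA.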

mouse TLR7 = biological target: T1, mouse TLR7 (Mus musculus, UniProt P58681); experiment: Short-term in vivo (STIV) assay: oral dosing, R848 s.c., plasma IL-6; design: female BALB/c mice (Jackson Labs, Bar Harbor, Me.) were dosed by oral gavage; tissue Jackson Labs; host or cells: living female BALB/c mice; plasma IL-6 after s.c. R848
T1 sequence (P58681 27-1050): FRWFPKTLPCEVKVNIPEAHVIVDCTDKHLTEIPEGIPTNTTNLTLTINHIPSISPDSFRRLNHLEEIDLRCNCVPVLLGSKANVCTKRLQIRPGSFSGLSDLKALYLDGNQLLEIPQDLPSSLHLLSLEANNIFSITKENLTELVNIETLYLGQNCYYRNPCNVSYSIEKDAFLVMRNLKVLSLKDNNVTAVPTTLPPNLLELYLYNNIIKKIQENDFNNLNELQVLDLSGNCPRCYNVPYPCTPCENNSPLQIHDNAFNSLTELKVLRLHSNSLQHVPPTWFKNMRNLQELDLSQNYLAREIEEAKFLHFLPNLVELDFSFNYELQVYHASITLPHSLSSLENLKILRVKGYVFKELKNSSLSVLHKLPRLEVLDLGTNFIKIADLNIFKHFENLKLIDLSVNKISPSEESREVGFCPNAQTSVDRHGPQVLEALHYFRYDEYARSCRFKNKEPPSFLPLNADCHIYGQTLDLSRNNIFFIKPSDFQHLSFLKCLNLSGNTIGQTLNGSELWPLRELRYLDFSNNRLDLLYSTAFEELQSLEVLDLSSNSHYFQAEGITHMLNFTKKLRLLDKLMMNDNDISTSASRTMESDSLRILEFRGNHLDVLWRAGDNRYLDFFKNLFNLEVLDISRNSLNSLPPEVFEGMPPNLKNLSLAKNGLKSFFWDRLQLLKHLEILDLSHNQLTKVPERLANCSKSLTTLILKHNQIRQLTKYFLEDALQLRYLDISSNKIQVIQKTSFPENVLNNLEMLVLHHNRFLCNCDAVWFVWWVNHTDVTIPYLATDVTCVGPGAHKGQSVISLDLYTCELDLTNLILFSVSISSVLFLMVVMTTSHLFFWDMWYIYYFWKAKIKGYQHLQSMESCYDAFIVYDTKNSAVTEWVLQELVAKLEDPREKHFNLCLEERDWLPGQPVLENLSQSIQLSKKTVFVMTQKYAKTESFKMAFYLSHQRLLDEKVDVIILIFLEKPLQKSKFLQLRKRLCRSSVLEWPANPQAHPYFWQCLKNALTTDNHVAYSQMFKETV
Description: Figure Legend: Female BALB/c mice were dosed by oral gavage with Vehicle alone (0.5% aqueous methyl-cellulose) or compound formulated in Vehicle at 33 mg/kg, 100 mg/kg or 300 mg/kg. […] (FIG. 1A).
Short-term in vivo (STIV) assay: To assess compound potency in vivo against mouse TLR7, a short-term in vivo (STIV) assay was utilized. Briefly, mice were orally dosed with compounds and at various time points afterwards were injected subcutaneously with agonist R848 to stimulate TLR7. The plasma IL-6 level following R848 stimulation was then measured by ELISA to assess compound potency and duration-of-action.
Short-term in vivo (STIV) assay. Six to eight week old female BALB/c mice (Jackson Labs, Bar Harbor, Me.) were dosed by oral gavage in 200 ul volume with antagonist compounds formulated in 0.5% aqueous methyl-cellulose (Sigma, St. Louis, Mo.). At various time points afterwards, mice were injected subcutaneously (s.c.) in 100 ul volume with 15 ug R848 (Resiquimod; GLSynthesis, Worcester, Mass.) to stimulate TLR7.

Compound	IC50 (Human TLR7/8)	% Suppression vs. Vehicle (mouse TLR7; 6 h, 100 mg/kg)	% Suppression vs. Vehicle (mouse TLR7; 13 h, 100 mg/kg)	% Suppression vs. Vehicle (mouse TLR7; 6 h, 33 mg/kg)	further results
CC1CN(c2ccc(C#N)c3ncccc23)CC(C(=O)NC2CCCN(C)C2)O1 (centres unmarked) [ER-899688]	11 nM	10%	96%	–	–
CC1CN(c2ccc(C#N)c3ncccc23)CC(C(=O)N2CCC3(CCNCC3)CC2)O1 (centres unmarked) [ER-899193]	9 nM	43%	52%	–	–
CC1CN(c2ccc(C#N)c3ncccc23)CC(CN2CCNC(C)C2C)O1 (centres unmarked) [ER-887137]	2 nM	100%	–	99%	% Suppression vs. Vehicle (mouse TLR7; 3 h, 33 mg/kg): 100%; % Suppression vs. Vehicle (mouse TLR7; 3 h, 100 mg/kg): 100%; % Suppression vs. Vehicle (mouse TLR7; 3 h, 300 mg/kg): 100%; % Suppression vs. Vehicle (mouse TLR7; 6 h, 300 mg/kg): 100%; % Suppression vs. Vehicle (mouse TLR7; 19 h, 33 mg/kg): 38%; % Suppression vs. Vehicle (mouse TLR7; 19 h, 100 mg/kg): 63%; % Suppression vs. Vehicle (mouse TLR7; 19 h, 300 mg/kg): 100%
CC1CN(c2ccc(C#N)c3ncccc23)CC(C(=O)NC2CCCNCC2)O1 (centres unmarked) [ER-899417]	1 nM	71%	0%	–	–
CC1CN(c2ccc(C#N)c3ncccc23)CC(C(=O)NCC2CNCCO2)O1 (centres unmarked) [ER-898694]	2 nM	–	36%	93%	% Suppression vs. Vehicle (mouse TLR7; 13 h, 33 mg/kg): 2%; % Suppression vs. Vehicle (mouse TLR7; 13 h, 300 mg/kg): 53%; % Suppression vs. Vehicle (mouse TLR7; 24 h, 33 mg/kg): 0%; % Suppression vs. Vehicle (mouse TLR7; 24 h, 100 mg/kg): 0%; % Suppression vs. Vehicle (mouse TLR7; 24 h, 300 mg/kg): 35%
CC1CN(c2ccc(C#N)c3ncccc23)CC(C(=O)NC2C3CNCC32)O1 (centres unmarked) [ER-899418]	5 nM	19%	10%	–	–
CC1CN(c2ccc(C#N)c3ncccc23)CC(C(=O)NC2CCOCC2)O1 (centres unmarked) [ER-899122]	80 nM	–	100%	–	% Suppression vs. Vehicle (mouse TLR7; 6 h, 11 mg/kg): 98%; % Suppression vs. Vehicle (mouse TLR7; 13 h, 11 mg/kg): 37%; % Suppression vs. Vehicle (mouse TLR7; 13 h, 33 mg/kg): 90%; % Suppression vs. Vehicle (mouse TLR7; 24 h, 11 mg/kg): 0%; % Suppression vs. Vehicle (mouse TLR7; 24 h, 33 mg/kg): 15%; % Suppression vs. Vehicle (mouse TLR7; 24 h, 100 mg/kg): 89%
CNCC1CN(C(=O)[C@H]2CN(c3ccc(C#N)c4ncccc34)C[C@@H](C)O2)C1 [ER-899018]	9 nM	73%	12%	–	–
CC1CN(c2ccc(C#N)c3ncccc23)CC(C(=O)NCC2CCCN2)O1 (centres unmarked) [ER-897969]	7 nM	–	54%	0%	% Suppression vs. Vehicle (mouse TLR7; 13 h, 33 mg/kg): 29%; % Suppression vs. Vehicle (mouse TLR7; 13 h, 300 mg/kg): 71%; % Suppression vs. Vehicle (mouse TLR7; 24 h, 33 mg/kg): 0%; % Suppression vs. Vehicle (mouse TLR7; 24 h, 100 mg/kg): 4%; % Suppression vs. Vehicle (mouse TLR7; 24 h, 300 mg/kg): 29%
CC(C)N1CCN(C[C@H]2CN(c3ccc(C#N)c4ncccc34)C[C@@H](C)O2)CC1 [ER-888322]	18 nM	100%	–	99%	% Suppression vs. Vehicle (mouse TLR7; 6 h, 300 mg/kg): 100%; % Suppression vs. Vehicle (mouse TLR7; 19 h, 33 mg/kg): 24%; % Suppression vs. Vehicle (mouse TLR7; 19 h, 100 mg/kg): 82%; % Suppression vs. Vehicle (mouse TLR7; 19 h, 300 mg/kg): 100%
Cc1cc(CO)cc(-c2ccc(C#N)c3ncccc23)c1 [ER-888201]	4 nM	50%	–	35%	% Suppression vs. Vehicle (mouse TLR7; 6 h, 300 mg/kg): 40%; % Suppression vs. Vehicle (mouse TLR7; 19 h, 33 mg/kg): 45%; % Suppression vs. Vehicle (mouse TLR7; 19 h, 100 mg/kg): 71%; % Suppression vs. Vehicle (mouse TLR7; 19 h, 300 mg/kg): 79%
CC[C@H]1CN(C[C@H]2CN(c3ccc(C#N)c4ncccc34)C[C@@H](C)O2)CCN1C [ER-890964]	1 nM	–	–	–	% Suppression vs. Vehicle (mouse TLR7; 3 h, 33 mg/kg): 96%; % Suppression vs. Vehicle (mouse TLR7; 19 h, 33 mg/kg): 0%
CCNC(=O)C1CN(c2ccc(C#N)c3ncccc23)CC(C)O1 (centres unmarked) [ER-894550]	97 nM	–	97%	98%	% Suppression vs. Vehicle (mouse TLR7; 13 h, 33 mg/kg): 72%; % Suppression vs. Vehicle (mouse TLR7; 13 h, 300 mg/kg): 99%; % Suppression vs. Vehicle (mouse TLR7; 24 h, 33 mg/kg): 48%; % Suppression vs. Vehicle (mouse TLR7; 24 h, 100 mg/kg): 71%; % Suppression vs. Vehicle (mouse TLR7; 24 h, 300 mg/kg): 99%
C[C@@H]1CN(c2ccc(C#N)c3ncccc23)C[C@H](C(=O)N(C)[C@@H]2CCCNC2)O1 [ER-899616]	54 nM	79%	27%	–	–
C[C@@H]1CN(c2ccc(C#N)c3ncccc23)C[C@H](C(=O)N[C@@H]2CCCN(C)C2)O1 [ER-899337]	2 nM	99%	30%	–	–
